Source: US5281602A, “Angiotensin II receptor blocking 2,3,6-substituted 5,6,7,8-tetrahydro-pyrido[4,3-D]pyrimidin-4(3H)-ones” (American Cyanamid Company, priority 1993, dated 1994)
Values joined by “and” are separate entries in the source; they are usually repeats but may differ in a detail not shown here. Equal values may be shown once.

Key:
[1] = tested on: ANGIOTENSIN II (A11) VASOPRESSOR RESPONSE; test: AII Challenge: blockade of angiotensin II vasopressor response in conscious SHR; type: in vivo, rat (Conscious Male Okamoto-Aoki SHR)
Source text: By administering a compound of this invention to a rat, and then challenging with angiotensin II, a blockage of the vasopressor response is realized.
Conscious Male Okamoto-Aoki SHR, 16-20 weeks old, weighing approximately 330 g are purchased from Charles River Labs (Wilmington, Mass.). Conscious rats are restrained in a supine position with elastic tape. The area at the base of the tail is locally anesthetized by subcutaneous infiltration with 2% procaine. The ventral caudal artery and vein are isolated, and a cannula made of polyethylene (PE) 10-20 tubing (fused together by heat) is passed into the lower abdominal aorta and vena cava, respectively. The cannula is secured, heparinized (1,000 I.U./ml), sealed and the wound is closed. The animals are placed in plastic restraining cages in an upright position. The cannula is attached to a Statham P23Db pressure transducer, and pulsatile blood pressure is recorded to 10-15 minutes with a Gould Brush recorder. (Chan et al., (Drug Development Res., 18:75-94, 1989).
Angiotensin II (human sequence, Sigma Chem. Co., St. Louis, Mo.) of 0.05 and 0.1 ug/kg i.v. is injected into all rats (predosing response). Then a test compound, vehicle or a known angiotensin II antagonist is administered i.v., i.p. or orally to each set of rats. […] The vasopressor response of angiotensin II is measured for the increase in systolic blood pressure in mmHg. The percentage of antagonism or blockade of the vasopressor response of angiotensin II by a compound is calculated using the vasopressor response (increase in systolic blood pressure) of angiotensin II of each rat predosing the compound as 100%. A compound is considered active if at 30 mg/kg i.v. it antagonized at least 50% of the response.

Angiotension II Receptor = test: Receptor Binding Assay: competition with [^125 I] (Sar^1,Ile^8) AngII on microsomal membranes; details: pH 7.4, 60 min, room temperature
Experimental: Binding of [^125 I] (Sar^1,Ile^8) AngII
The binding of [^125 I] (Sar^1,Ile^8) AngII to microsomal membranes is initiated by the addition of reconstituted membranes (1:10 vols.) in freshly made 50.0 mMTris.HCl buffer, pH 7.4 containing 0.25% heat inactivated bovine serum albumin (BSA):80 ul membrane protein (10 to 20 ug/assay) to wells already containing 100 ul of incubation buffer (as described above) and 20 ul [^125 I] (Sar^1,Ile^8) AngII (Specific Activity, 2200 Ci/mmole). Non-specific binding is measured in the presence of 1.0 uM unlabeled (Sar^1,Ile^8) AngII, added in 20 ul volume. Specific binding for [^125 I] (Sar^1,Ile^8) AngII is greater than 90%. In competition studies, experimental compounds are diluted in dimethylsulfoxide (DMSO) and added in 20 ul to wells before the introduction of tissue membranes. This concentration of DMSO is found to have no negative effects on the binding of [^125 I] (Sar^1,Ile^8) AngII to the membranes. Assays are performed in triplicate. […] Presoaking the filter sheet in 0.1% polyethylenemine in normal saline (PEI/Saline) greatly reduces the radioactivity retained by the filter blanks. […] The filters are removed from the filter grid and counted in a Parkard® Cobra Gamma Counter for 1 min. […] The binding data are analyzed by the non-linear interactive "LUNDON-1" program (LUNDON SOFTWARE Inc., Cleveland, Ohio U.S.A.). […]

[2] = 15 mg/kg IV, AII 0.05 mcg/kg IV, 30 min post dose
[3] = 15 mg/kg IV, AII 0.05 mcg/kg IV, 60 min post dose
[4] = 15 mg/kg IV, AII 0.05 mcg/kg IV, 90 min post dose
[5] = 15 mg/kg IV, AII 0.1 mcg/kg IV, 30 min post dose
[6] = 15 mg/kg IV, AII 0.1 mcg/kg IV, 60 min post dose
[7] = 15 mg/kg IV, AII 0.1 mcg/kg IV, 90 min post dose
[8] = under second '15 IV' line, AII 0.05 mcg/kg IV, 120 min
[9] = under second '15 IV' line, AII 0.05 mcg/kg IV, 180 min
[10] = under second '15 IV' line, AII 0.1 mcg/kg IV, 120 min
[11] = under second '15 IV' line, AII 0.1 mcg/kg IV, 180 min

- IC50 (Angiotension II Receptor): 660 nM
SMILES: CCCCc1nc2c(c(=O)n1Cc1ccc(-c3ccccc3-c3nnn[nH]3)cc1)CN(C(=O)OCc1ccccc1)CC2 [Example 7, Phenylmethyl 2-butyl-3,5,7,8-tetrahydro-4-oxo-3-[[2'-(1H-tetrazol-5-yl)[1,1' -biphenyl] -4-yl]methyl]pyrido[4,3-d]pyrimidin-6(4H)-carboxylate]
- Average % Inhibition (angiotensin blockage) of AII vasopressor response [1, 2]: 71%
- Average Change (systolic blood pressure response to AII) [1, 2]: 11 mmHg
- Average % Inhibition (angiotensin blockage) of AII vasopressor response [1, 3]: 33%
- Average Change (systolic blood pressure response to AII) [1, 3]: 25 mmHg
- Change (single reading, systolic blood pressure) ([1]; 15 mg/kg IV, AII 0.05 mcg/kg IV, 60 min post dose, 15 mg/kg): 30 mmHg and 20 mmHg
- Average % Inhibition (angiotensin blockage) of AII vasopressor response [1, 4]: 31%
- Average Change (systolic blood pressure response to AII) [1, 4]: 26 mmHg
- Change (single reading, systolic blood pressure) ([1]; 15 mg/kg IV, AII 0.05 mcg/kg IV, 90 min post dose, 15 mg/kg): 30 mmHg and 22 mmHg
- Average % Inhibition (angiotensin blockage) of AII vasopressor response [1, 5]: 59%
- Average Change (systolic blood pressure response to AII) [1, 5]: 17.5 mmHg
- Change (single reading, systolic blood pressure) ([1]; 15 mg/kg IV, AII 0.1 mcg/kg IV, 30 min post dose, 15 mg/kg): 15 mmHg and 20 mmHg
- Average % Inhibition (angiotensin blockage) of AII vasopressor response [1, 6]: 11%
- Average Change (systolic blood pressure response to AII) [1, 6]: 38 mmHg
- Change (single reading, systolic blood pressure) ([1]; 15 mg/kg IV, AII 0.1 mcg/kg IV, 60 min post dose, 15 mg/kg): 40 mmHg and 36 mmHg
- Average % Inhibition (angiotensin blockage) of AII vasopressor response [1, 7]: 0%
- Average Change (systolic blood pressure response to AII) [1, 7]: 42.5 mmHg
- Change (single reading, systolic blood pressure) ([1]; 15 mg/kg IV, AII 0.1 mcg/kg IV, 90 min post dose, 15 mg/kg): 40 mmHg and 45 mmHg
- Response After A11 (systolic blood pressure) ([1]; 15 mg/kg IV, after AII 0.05 mcg/kg IV, 30 min post dose, 15 mg/kg): 192 mmHg and 175 mmHg
- Response After A11 (systolic blood pressure) ([1]; 15 mg/kg IV, after AII 0.05 mcg/kg IV, 60 min post dose, 15 mg/kg): 200 mmHg and 190 mmHg
- Response After A11 (systolic blood pressure) ([1]; 15 mg/kg IV, after AII 0.05 mcg/kg IV, 90 min post dose, 15 mg/kg): 200 mmHg and 182 mmHg
- Response After A11 (systolic blood pressure) ([1]; 15 mg/kg IV, after AII 0.1 mcg/kg IV, 30 min post dose, 15 mg/kg): 190 mmHg and 180 mmHg
- Response After A11 (systolic blood pressure) ([1]; 15 mg/kg IV, after AII 0.1 mcg/kg IV, 60 min post dose, 15 mg/kg): 215 mmHg and 206 mmHg
- Response After A11 (systolic blood pressure) ([1]; 15 mg/kg IV, after AII 0.1 mcg/kg IV, 90 min post dose, 15 mg/kg): 210 mmHg and 200 mmHg
- Control Before A11 (systolic blood pressure) ([1]; 15 mg/kg IV, before AII 0.05 mcg/kg IV, 30 min post dose, 15 mg/kg): 185 mmHg and 160 mmHg
- Control Before A11 (systolic blood pressure) ([1]; 15 mg/kg IV, before AII 0.05 mcg/kg IV, 60 min post dose): 170 mmHg
- Control Before A11 (systolic blood pressure) ([1]; 15 mg/kg IV, before AII 0.05 mcg/kg IV, 90 min post dose, 15 mg/kg): 170 mmHg and 160 mmHg
- Control Before A11 (systolic blood pressure) ([1]; 15 mg/kg IV, before AII 0.1 mcg/kg IV, 30 min post dose, 15 mg/kg): 175 mmHg and 160 mmHg
- Control Before A11 (systolic blood pressure) ([1]; 15 mg/kg IV, before AII 0.1 mcg/kg IV, 60 min post dose, 15 mg/kg): 175 mmHg and 170 mmHg
- Control Before A11 (systolic blood pressure) ([1]; 15 mg/kg IV, before AII 0.1 mcg/kg IV, 90 min post dose, 15 mg/kg): 170 mmHg and 155 mmHg
- Average % Inhibition (angiotensin blockage) of AII vasopressor response [1, 8]: 87%
- Average Change (systolic blood pressure response to AII) [1, 8]: 5 mmHg
- Average % Inhibition (angiotensin blockage) of AII vasopressor response [1, 9]: 33%
- Average Change (systolic blood pressure response to AII) [1, 9]: 25 mmHg
- Change (single reading, systolic blood pressure) [1, 9]: 25 mmHg
- Average % Inhibition (angiotensin blockage) of AII vasopressor response [1, 10]: 81%
- Average Change (systolic blood pressure response to AII) [1, 10]: 8 mmHg
- Change (single reading, systolic blood pressure) [1, 10]: 6 mmHg and 10 mmHg
- Average % Inhibition (angiotensin blockage) of AII vasopressor response [1, 11]: 32%
- Average Change (systolic blood pressure response to AII) [1, 11]: 29 mmHg
- Change (single reading, systolic blood pressure) [1, 11]: 38 mmHg and 20 mmHg
- Response After A11 (systolic blood pressure) ([1]; under second '15 IV' line, after AII 0.05 mcg/kg IV, 120 min): 195 mmHg and 185 mmHg
- Response After A11 (systolic blood pressure) ([1]; under second '15 IV' line, after AII 0.05 mcg/kg IV, 180 min): 200 mmHg and 160 mmHg
- Response After A11 (systolic blood pressure) ([1]; under second '15 IV' line, after AII 0.1 mcg/kg IV, 120 min): 176 mmHg and 180 mmHg
- Response After A11 (systolic blood pressure) ([1]; under second '15 IV' line, after AII 0.1 mcg/kg IV, 180 min): 215 mmHg and 160 mmHg
- Control Before A11 (systolic blood pressure) ([1]; under second '15 IV' line, before AII 0.05 mcg/kg IV, 120 min): 185 mmHg
- Control Before A11 (systolic blood pressure) ([1]; under second '15 IV' line, before AII 0.05 mcg/kg IV, 180 min): 175 mmHg and 135 mmHg
- Control Before A11 (systolic blood pressure) ([1]; under second '15 IV' line, before AII 0.1 mcg/kg IV, 120 min): 170 mmHg
- Control Before A11 (systolic blood pressure) ([1]; under second '15 IV' line, before AII 0.1 mcg/kg IV, 180 min): 177 mmHg and 140 mmHg
